# Assays:
# [1] = molecular target: neuraminidase of influenza A virus A/342/2009 (H1N1, oseltamivir resistant) (UniProt P03468); assay type: biochemical
# [2] = tested on: influenza A virus A/342/2009 (H1N1; oseltamivir-resistant); assay type: cell-based
SMILES,50% inhibitory concentration higher compared to zanamivir [1],"90% inhibitory concentration, A/342/2009 [2]","95% inhibitory concentration (values in parentheses), A/342/2009 [2]"
CCC(CC)O[C@@H]1C=C(C(=O)O)C[C@H](NC(C)=N)[C@H]1NC(C)=O [Compound 3],50 fold,16.0 (22.3) μM,16.0 (22.3) μM
"CCC(CC)O[C@@H]1C=C(C(=O)O)C[C@H](NC(=N)N)[C@H]1NC(C)=O [Compound 9, (3R,4R,5S)-4-acetamido-5-(N-guanidino)-3-(1-ethylpropoxy)cyclohex-1-en-1-carboxylic acid]",–,3.0 (14.2) μM,3.0 (14.2) μM
"CCOC(=O)C1=C[C@@H](OC(CC)CC)[C@H](NC(C)=O)[C@@H](N)C1 [Oseltamivir, (3R,4R,5S)-4-acetamido-5-amino-3-(1-ethylpropoxy)cyclohex-1-en-1-carboxylic acid ethyl ester, reference compound]",–,resistant,–

# — patent US9828333B2, “Compounds for the treatment of influenza” (CHRISTIAN-ALBRECHTS-UNIVERSITAT ZU KIEL, priority 2011, dated 2017)
